According to ChEMBL document CHEMBL2413014, “Imidazolium-based warheads strongly influence activity of water-soluble peptidic transglutaminase inhibitors” (Eur J Med Chem, 2013):

Legend:
[1] = molecular target: T1, Coagulation factor XIII A chain (Homo sapiens, UniProt P00488); assay: Inhibition of recombinant human F13a-mediated biotin X-cadaverine incorporation into N,N'-dimethylcasein after 1 hr
T1 sequence (P00488 whole entry): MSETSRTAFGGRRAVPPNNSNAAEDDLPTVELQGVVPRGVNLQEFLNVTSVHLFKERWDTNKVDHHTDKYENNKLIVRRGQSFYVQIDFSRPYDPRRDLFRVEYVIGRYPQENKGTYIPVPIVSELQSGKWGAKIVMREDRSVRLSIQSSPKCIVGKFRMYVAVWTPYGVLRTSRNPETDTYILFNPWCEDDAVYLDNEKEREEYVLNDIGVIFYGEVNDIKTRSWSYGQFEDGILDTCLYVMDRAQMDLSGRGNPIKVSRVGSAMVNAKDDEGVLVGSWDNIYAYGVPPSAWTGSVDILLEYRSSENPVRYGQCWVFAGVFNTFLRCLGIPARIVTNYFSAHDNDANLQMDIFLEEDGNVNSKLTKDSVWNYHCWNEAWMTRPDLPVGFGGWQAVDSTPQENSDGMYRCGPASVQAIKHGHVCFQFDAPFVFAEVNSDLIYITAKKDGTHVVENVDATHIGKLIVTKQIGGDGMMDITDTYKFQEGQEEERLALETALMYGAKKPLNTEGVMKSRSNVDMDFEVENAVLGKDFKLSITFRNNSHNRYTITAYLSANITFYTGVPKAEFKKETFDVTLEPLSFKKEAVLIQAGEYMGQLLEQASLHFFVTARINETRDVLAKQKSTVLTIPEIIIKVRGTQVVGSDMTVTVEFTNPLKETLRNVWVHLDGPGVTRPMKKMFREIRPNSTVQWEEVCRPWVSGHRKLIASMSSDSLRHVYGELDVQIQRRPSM

[2] = molecular target: T2, Protein-glutamine gamma-glutamyltransferase (Homo sapiens, UniProt P21980); assay: Inhibition of recombinant human tissue transglutaminase-mediated biotin X-cadaverine incorporation into N,N'-dimethylcasein after 1 hr
T2 sequence (P21980 whole entry): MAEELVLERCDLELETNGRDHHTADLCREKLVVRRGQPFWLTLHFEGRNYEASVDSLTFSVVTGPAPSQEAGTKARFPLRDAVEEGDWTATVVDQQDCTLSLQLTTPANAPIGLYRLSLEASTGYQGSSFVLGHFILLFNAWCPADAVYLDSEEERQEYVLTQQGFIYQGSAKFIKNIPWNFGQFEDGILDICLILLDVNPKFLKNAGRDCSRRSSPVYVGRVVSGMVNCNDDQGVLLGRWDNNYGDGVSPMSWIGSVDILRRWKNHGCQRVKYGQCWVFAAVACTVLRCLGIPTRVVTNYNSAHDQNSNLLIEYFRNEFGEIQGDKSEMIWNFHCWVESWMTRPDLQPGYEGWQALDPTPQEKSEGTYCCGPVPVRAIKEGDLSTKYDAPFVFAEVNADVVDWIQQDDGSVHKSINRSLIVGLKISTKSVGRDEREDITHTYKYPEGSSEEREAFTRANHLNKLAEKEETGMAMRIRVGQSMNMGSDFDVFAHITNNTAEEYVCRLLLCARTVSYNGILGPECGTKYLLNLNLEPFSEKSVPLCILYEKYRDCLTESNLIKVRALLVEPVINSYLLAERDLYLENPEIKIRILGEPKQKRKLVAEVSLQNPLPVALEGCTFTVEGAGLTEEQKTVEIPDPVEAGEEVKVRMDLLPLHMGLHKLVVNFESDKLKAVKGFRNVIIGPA

NIH3T3 = assay: Cytotoxicity against Swiss mouse 3T3 cells up to 250 uM after 72 hrs; assay type: cell-based; conditions: nih3t3, 72 h

SMILES	IC50 [1]	IC50 [2]	Activity (NIH3T3)
Cc1c(C)[n+](C)c(SCC(=O)CC[C@H](NC(=O)CNC(=O)OCc2ccccc2)C(=O)O)n1Cc1ccccc1	> 200 µM	> 200 µM	–
CCn1c(C)c(C)[n+](CC)c1SCC(=O)CC[C@H](NC(=O)CNC(=O)OCc1ccccc1)C(=O)O	> 200 µM	> 200 µM	–
CCn1c(C)c(C)[n+](CC)c1SCC(=O)CC[C@H](NC(=O)[C@H](Cc1ccccc1)NC(=O)OCc1ccccc1)C(=O)O	50 µM	> 200 µM	–
CCC[n+]1c(C)c(C)n(C)c1SCC(=O)CC[C@H](NC(=O)CNC(=O)OCc1ccccc1)C(=O)O	30 µM	> 200 µM	–
CCCc1c(CCC)[n+](C)c(SCC(=O)CC[C@H](NC(=O)[C@H](Cc2ccccc2)NC(=O)OCc2ccccc2)C(=O)O)n1C	10 µM	5 µM	–
Cc1c(C)[n+](C)c(SCC(=O)CC[C@H](NC(=O)[C@H](Cc2ccccc2)NC(=O)OCc2ccccc2)C(=O)O)n1C.[Br-]	5 µM	3 µM	Non-toxic
Cc1c(C)[n+](C)c(SCC(=O)CC[C@H](NC(=O)CNC(=O)OCc2ccccc2)C(=O)O)n1-c1ccccc1	> 200 µM	> 200 µM	–
C[S+](C)CC(=O)CC[C@H](NC(=O)CNC(=O)OCc1ccccc1)C(=O)O	> 200 µM	8 µM	–
CC[S+](CC)CC(=O)CC[C@H](NC(=O)CNC(=O)OCc1ccccc1)C(=O)O	> 200 µM	20 µM	–
CCCc1c(CCC)[n+](C)c(SCC(=O)CC[C@H](NC(=O)CNC(=O)OCc2ccccc2)C(=O)O)n1C	20 µM	10 µM	–
Cc1c(C)[n+](C)c(SCC(=O)CC[C@H](NC(=O)CNC(=O)OCc2ccccc2)C(=O)O)n1C	2 µM	1 µM	–
CC[S+](CC)CC(=O)CC[C@H](NC(=O)[C@H](Cc1ccccc1)NC(=O)OCc1ccccc1)C(=O)O	> 200 µM	20 µM	–
CCC[n+]1c(C)c(C)n(C)c1SCC(=O)CC[C@H](NC(=O)[C@H](Cc1ccccc1)NC(=O)OCc1ccccc1)C(=O)O	> 200 µM	> 200 µM	–
C[S+](C)CC(=O)CC[C@H](NC(=O)[C@H](Cc1ccccc1)NC(=O)OCc1ccccc1)C(=O)O	105 µM	10 µM	–
Cc1c(C)[n+](C)c(SCC(=O)CC[C@H](NC(=O)[C@H](Cc2ccccc2)NC(=O)OCc2ccccc2)C(=O)O)n1-c1ccccc1	> 200 µM	> 200 µM	–
Cc1c(C)[n+](C)c(SCC(=O)CC[C@H](NC(=O)[C@H](Cc2ccccc2)NC(=O)OCc2ccccc2)C(=O)O)n1Cc1ccccc1	> 200 µM	> 200 µM	–
